From PubChem BioAssay AID330 (DTP/NCI, 2004)
Values joined by “and” are separate entries in the source; they are usually repeats but may differ in a detail not shown here. Equal values may be shown once. Toxic doses and inconclusive results are not listed.

Tested on: P388 leukemia ip, CD2F1 mice, survival T/C
Experiment: NCI In Vivo Anticancer Drug Screen. Data for tumor model P388 Leukemia (intraperitoneal) in CD2F1 (CDF1) mice
Conditions: endpoint: median survival time, higher = longer survival
In short: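 Mice carrying the transplanted tumor received test compound or vehicle. Survival was recorded in each group, and the value is the treated-group measurement divided by that of the vehicle-treated control group.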

[1] = dose: 50.0 mg/kg/injection, schedule: Q01DX005 (ip), vehicle: saline with Tween-80
[2] = dose: 100.0 mg/kg/injection, schedule: Q01DX005 (ip), vehicle: saline with Tween-80
[3] = dose: 200.0 mg/kg/injection, schedule: Q01DX005 (ip), vehicle: saline with Tween-80
[4] = dose: 60.0 mg/kg/injection, schedule: Q01DX005 (ip), vehicle: Klucel (hydroxypropylcellulose) (HPC)
[5] = dose: 120.0 mg/kg/injection, schedule: Q01DX005 (ip), vehicle: Klucel (hydroxypropylcellulose) (HPC)
[6] = dose: 50.0 mg/kg/injection, schedule: Q01DX009 (ip), vehicle: saline with Tween-80
[7] = dose: 100.0 mg/kg/injection, schedule: Q01DX009 (ip), vehicle: saline with Tween-80
[8] = dose: 200.0 mg/kg/injection, schedule: Q01DX009 (ip), vehicle: saline with Tween-80

Q: With CCN(CCP(c1ccccc1)c1ccccc1)CCP(c1ccccc1)c1ccccc1 as the compound, how does the T/C (dose: 0.75 mg/kg/injection, schedule: Q04DX003 (ip), vehicle: saline with Tween-80) read?
A: 109 % of control

Q: What about the T/C (dose: 1.5 mg/kg/injection, schedule: Q04DX003 (ip), vehicle: saline with Tween-80) of the same compound?
A: 109 % of control

Q: What about the T/C (dose: 3.0 mg/kg/injection, schedule: Q04DX003 (ip), vehicle: saline with Tween-80) of the same compound?
A: 118 % of control

Q: What about the T/C (dose: 3.13 mg/kg/injection, schedule: Q04DX003 (ip), vehicle: saline with Tween-80) of the same compound?
A: 118 % of control

Q: What about the T/C (dose: 6.25 mg/kg/injection, schedule: Q04DX003 (ip), vehicle: saline with Tween-80) of the same compound?
A: 118 % of control

Q: What about the T/C (dose: 100.0 mg/kg/injection, schedule: Q04DX003 (ip), vehicle: saline with Tween-80) of the same compound?
A: 100 % of control and 87 % of control

Q: How did the T/C [1] turn out when COc1ccc(S(=O)(=O)N/N=C\c2cc([N+](=O)[O-])cc([N+](=O)[O-])c2O)c(OC)c1OC was run?
A: 102 % of control

Q: What about the T/C [2] of the same compound?
A: 107 % of control

Q: And the T/C [3]?
A: 99 % of control

Q: For CC(C)CC(C)NC(=O)Nc1ccc(Cc2ccc(NC(=O)NC(C)CC(C)C)cc2)cc1 (stereo unspecified), which T/C (dose: 50.0 mg/kg/injection, schedule: Q01DX009 (ip), vehicle: Klucel (hydroxypropylcellulose) (HPC)) is on record?
A: 96 % of control

Q: What about the T/C (dose: 100.0 mg/kg/injection, schedule: Q01DX009 (ip), vehicle: Klucel (hydroxypropylcellulose) (HPC)) of the same compound?
A: 97 % of control

Q: And the T/C (dose: 200.0 mg/kg/injection, schedule: Q01DX009 (ip), vehicle: Klucel (hydroxypropylcellulose) (HPC))?
A: 93 % of control

Q: Which results are given for O=NNc1nc(-c2ccccn2)nc2ccccc12?
A: T/C (dose: 3.12 mg/kg/injection, schedule: Q01DX009 (ip), vehicle: DMSO): 109 % of control; T/C (dose: 6.25 mg/kg/injection, schedule: Q01DX009 (ip), vehicle: DMSO): 94 % of control; T/C (dose: 12.5 mg/kg/injection, schedule: Q01DX009 (ip), vehicle: DMSO): 105 % of control; T/C (dose: 25.0 mg/kg/injection, schedule: Q01DX009 (ip), vehicle: DMSO): 102 % of control

Q: Which T/C (dose: 10.0 mg/kg/injection, schedule: Q01DX009 (ip), vehicle: saline) does the source give for CC(CN(C)C)Oc1ccccc1NC1=C(Cl)C(=O)C(Nc2ccccc2OC(C)CN(C)C)=C(Cl)C1=O (stereo unspecified) here?
A: 108 % of control and 115 % of control

Q: What about the T/C (dose: 20.0 mg/kg/injection, schedule: Q01DX009 (ip), vehicle: saline) of the same compound?
A: 115 % of control and 118 % of control

Q: For CNC(=O)NC(c1ccc2c(c1)OCO2)c1cc2c(cc1O)OCO2 (stereo unspecified), which T/C [4] is on record?
A: 87 % of control

Q: What about the T/C [5] of the same compound?
A: 87 % of control

Q: With Cc1ncc([N+](=O)[O-])n1CCOc1c(Cl)cc(Cl)cc1CN(C)C1CCCCC1 as the compound, how does the T/C (dose: 3.12 mg/kg/injection, schedule: Q01DX005 (ip), vehicle: Klucel (hydroxypropylcellulose) (HPC)) read?
A: 100 % of control

Q: And the T/C (dose: 6.25 mg/kg/injection, schedule: Q01DX005 (ip), vehicle: Klucel (hydroxypropylcellulose) (HPC))?
A: 98 % of control

Q: And the T/C (dose: 12.5 mg/kg/injection, schedule: Q01DX005 (ip), vehicle: Klucel (hydroxypropylcellulose) (HPC))?
A: 105 % of control

Q: Which results are given for COc1ccc(/C=N/Nc2nnc3c4ccccc4c4ncccc4c3n2)cc1?
A: T/C (dose: 100.0 mg/kg/injection, schedule: Q01DX001 (ip), vehicle: saline with Tween-80): 88 % of control; T/C (dose: 200.0 mg/kg/injection, schedule: Q01DX001 (ip), vehicle: saline with Tween-80): 95 % of control; T/C (dose: 400.0 mg/kg/injection, schedule: Q01DX001 (ip), vehicle: saline with Tween-80): 106 % of control

Q: Which T/C (dose: 3.13 mg/kg/injection, schedule: Q01DX009 (ip), vehicle: water) does the source give for N#Cc1ccc(NN=O)nc1 here?
A: 116 % of control and 123 % of control

Q: What about the T/C (dose: 6.25 mg/kg/injection, schedule: Q01DX009 (ip), vehicle: water) of the same compound?
A: 159 % of control

Q: And the T/C (dose: 12.5 mg/kg/injection, schedule: Q01DX009 (ip), vehicle: water)?
A: 151 % of control and 169 % of control

Q: What about the T/C (dose: 25.0 mg/kg/injection, schedule: Q01DX009 (ip), vehicle: water) of the same compound?
A: 194 % of control and 268 % of control

Q: With CC(=O)c1ccc(N(C)C(=O)C(Cl)Cl)cc1 as the compound, how does the T/C (dose: 100.0 mg/kg/injection, schedule: Q04DX003 (ip), vehicle: Klucel (hydroxypropylcellulose) (HPC)) read?
A: 100 % of control

Q: And the T/C (dose: 200.0 mg/kg/injection, schedule: Q04DX003 (ip), vehicle: Klucel (hydroxypropylcellulose) (HPC))?
A: 100 % of control

Q: What about the T/C (dose: 400.0 mg/kg/injection, schedule: Q04DX003 (ip), vehicle: Klucel (hydroxypropylcellulose) (HPC)) of the same compound?
A: 100 % of control

Q: O=C(Nc1cccc(NC(=O)c2nn[nH]n2)n1)c1nn[nH]n1 was tested. Which T/C (dose: 50.0 mg/kg/injection, schedule: Q01DX005 (ip), vehicle: Klucel (hydroxypropylcellulose) (HPC)) did it give?
A: 105 % of control

Q: What about the T/C (dose: 100.0 mg/kg/injection, schedule: Q01DX005 (ip), vehicle: Klucel (hydroxypropylcellulose) (HPC)) of the same compound?
A: 105 % of control

Q: And the T/C (dose: 200.0 mg/kg/injection, schedule: Q01DX005 (ip), vehicle: Klucel (hydroxypropylcellulose) (HPC))?
A: 99 % of control

Q: How did the T/C (dose: 12.5 mg/kg/injection, schedule: Q01DX009 (ip), vehicle: saline) turn out when COc1cc(C)c2sc3ccccc3c(=O)c2c1NCCN(C)C was run?
A: 100 % of control and 104 % of control and 108 % of control

Q: And the T/C (dose: 25.0 mg/kg/injection, schedule: Q01DX009 (ip), vehicle: saline)?
A: 99 % of control and 108 % of control and 110 % of control

Q: And the T/C [6]?
A: 96 % of control

Q: And the T/C (dose: 100.0 mg/kg/injection, schedule: Q01DX009 (ip), vehicle: saline)?
A: 111 % of control and 112 % of control

Q: How did the T/C (dose: 25.0 mg/kg/injection, schedule: Q01DX009 (ip), vehicle: saline with Tween-80) turn out when CONC(=O)Cc1cccc(OC)c1 was run?
A: 104 % of control

Q: What about the T/C [6] of the same compound?
A: 114 % of control

Q: And the T/C [7]?
A: 98 % of control

Q: What does the source list for COc1ccc(/C=C(\C)[N+](=O)[O-])cc1OC?
A: T/C (dose: 12.5 mg/kg/injection, schedule: Q01DX009 (ip), vehicle: distilled water + Tween-80): 100 % of control; T/C (dose: 25.0 mg/kg/injection, schedule: Q01DX009 (ip), vehicle: distilled water + Tween-80): 121 % of control; T/C (dose: 50.0 mg/kg/injection, schedule: Q01DX009 (ip), vehicle: distilled water + Tween-80): 115 % of control; T/C (dose: 100.0 mg/kg/injection, schedule: Q01DX009 (ip), vehicle: distilled water + Tween-80): 115 % of control

Q: For c1cc2onc3c4cccc5onc(c(c1)c23)c54, which T/C (dose: 8.75 mg/kg/injection, schedule: Q01DX005 (ip), vehicle: Klucel (hydroxypropylcellulose) (HPC)) is on record?
A: 99 % of control

Q: What about the T/C (dose: 17.5 mg/kg/injection, schedule: Q01DX005 (ip), vehicle: Klucel (hydroxypropylcellulose) (HPC)) of the same compound?
A: 93 % of control

Q: What about the T/C (dose: 35.0 mg/kg/injection, schedule: Q01DX005 (ip), vehicle: Klucel (hydroxypropylcellulose) (HPC)) of the same compound?
A: 99 % of control

Q: Which T/C [4] does the source give for NC(=O)C(C(N)=O)=C1C(=O)c2ccccc2C1=O here?
A: 95 % of control

Q: And the T/C [5]?
A: 100 % of control

Q: And the T/C (dose: 240.0 mg/kg/injection, schedule: Q01DX005 (ip), vehicle: Klucel (hydroxypropylcellulose) (HPC))?
A: 99 % of control

Q: For OCC(O)C1OC(c2ccco2)OC(CO)C1O (stereo unspecified), which T/C [1] is on record?
A: 102 % of control

Q: And the T/C [2]?
A: 105 % of control

Q: What about the T/C [3] of the same compound?
A: 105 % of control

Q: Which T/C (dose: 1.56 mg/kg/injection, schedule: Q01DX005 (ip), vehicle: saline with Tween-80) does the source give for COc1ccc(OC(=O)c2ccccc2)c2c1C(=O)C=CC2=O here?
A: 116 % of control

Q: And the T/C (dose: 3.13 mg/kg/injection, schedule: Q01DX005 (ip), vehicle: saline with Tween-80)?
A: 111 % of control

Q: And the T/C (dose: 6.25 mg/kg/injection, schedule: Q01DX005 (ip), vehicle: saline with Tween-80)?
A: 111 % of control and 116 % of control

Q: Which T/C (dose: 15.0 mg/kg/injection, schedule: Q01DX005 (ip), vehicle: Klucel (hydroxypropylcellulose) (HPC)) does the source give for O=c1oc2nc(-c3ccccc3)[nH]c(=O)c2c(O)c1Cc1ccccc1 here?
A: 97 % of control

Q: What about the T/C (dose: 30.0 mg/kg/injection, schedule: Q01DX005 (ip), vehicle: Klucel (hydroxypropylcellulose) (HPC)) of the same compound?
A: 98 % of control

Q: And the T/C [4]?
A: 95 % of control and 96 % of control

Q: What does the source list for C/C=C/C(C)C1OC1(C)C(O)C1COC(=O)C(O)C(OC)C(C)C(=O)C(C)C(O)/C(C)=C/C(C)C(=O)CC(O)C(C)C1=O (stereo unspecified)?
A: T/C (dose: 0.39 micrograms/kg/injection, schedule: Q01DX005 (ip), vehicle: saline): 106 % of control; T/C (dose: 0.78 micrograms/kg/injection, schedule: Q01DX005 (ip), vehicle: saline): 119 % of control; T/C (dose: 1.56 micrograms/kg/injection, schedule: Q01DX005 (ip), vehicle: saline): 123 % of control; T/C (dose: 3.12 micrograms/kg/injection, schedule: Q01DX005 (ip), vehicle: saline): 119 % of control; T/C (dose: 6.25 micrograms/kg/injection, schedule: Q01DX005 (ip), vehicle: saline): 113 % of control and 123 % of control

Q: How did the T/C [6] turn out when CCOC(=O)C1(C(=O)OCC)N=C(c2ccccc2)C=C1c1ccccc1 was run?
A: 100 % of control

Q: And the T/C [7]?
A: 98 % of control

Q: What about the T/C [8] of the same compound?
A: 94 % of control

Q: For OC1C=CC2CCC1C2 (stereo unspecified), which T/C [6] is on record?
A: 107 % of control

Q: And the T/C [7]?
A: 114 % of control

Q: And the T/C [8]?
A: 115 % of control

Q: With COc1nc(NC2OC(COC(C)=O)C(OC(C)=O)C(OC(C)=O)C2OC(C)=O)c(N=CC=Nc2c(NC3OC(COC(C)=O)C(OC(C)=O)C(OC(C)=O)C3OC(C)=O)nc(OC)[nH]c2=O)c(=O)[nH]1 (stereo unspecified) as the compound, how does the T/C (dose: 60.0 mg/kg/injection, schedule: Q01DX005 (ip), vehicle: saline with Tween-80) read?
A: 89 % of control

Q: What about the T/C (dose: 120.0 mg/kg/injection, schedule: Q01DX005 (ip), vehicle: saline with Tween-80) of the same compound?
A: 90 % of control

Q: What about the T/C (dose: 240.0 mg/kg/injection, schedule: Q01DX005 (ip), vehicle: saline with Tween-80) of the same compound?
A: 95 % of control
